{"source": "patent US4883821A", "about": "“Agent for treating hyperuricemia” (Eisai Co., Ltd., priority 1988, dated 1989)", "key": {"[1]": {"settings": "disclosed in Japanese Patent Laid-Open No. 210050/1986; cited from earlier work"}, "uric acid level in serum": {"tested_on": "uric acid level in serum", "test": "phase I clinical test: uric acid level in serum of healthy adult men (enzymatic method)", "type": "in vivo", "method": "Capsules containing 300 mg of the compound of the present invention, N-{3-[4\"-(2\",6\"-dimethylheptyl)phenyl]butanoyl}ethanolamine, were administered to 5 healthy adult men for 7 days three times per day after meals. For comparison, a placebo was administered to two other healthy adult men. Thus, the phase I clinical test was conducted.\n[…] With respect to the measured values, the significance test was conducted between the group to which the compound of the present invention was administered and the group to which the placebo was administered.\nIn the above table, each value indicates the uric acid level (mg/dl) in serum, and A through G in the column of \"Healthy man\" represent the adult men to whom the medicine was administered."}, "[2]": {"test": "acute toxicity test in rats", "type": "in vivo", "settings": "rat, in vivo", "method": "(§1) The acute toxicity test was carried out by oral, intraperitoneal and subcutaneous administration to 7- to 8-week old Sic-SD rats and Slc:ICr mice. The case of death was observed within 5 days from the start of the administration."}, "Sic-SD rats": {"tested_on": "Sic-SD rats", "test": "acute toxicity test in rats", "type": "in vivo", "settings": "oral, intraperitoneal and subcutaneous", "method": "as §1"}, "[3]": {"test": "acute toxicity test in mice", "settings": "mouse, in vivo", "method": "as §1"}, "[4]": {"settings": "clinical use, prior art; cited from earlier work"}}, "note": "Values joined by “and” are separate entries in the source; they are usually repeats but may differ in a detail not shown here. Equal values may be shown once."}
{"smiles": "CC(C)CCCC(C)Cc1ccc(C(C)CC(=O)NCCO)cc1", "note": "(stereo not drawn) [compound of the present invention, N-{3-[4'-(2\",6\"-dimethylheptyl)phenyl]butanoyl}ethanolamine]", "values": [{"measurement": "anticholesterolemic action", "setting": "[1]", "result": "has an anticholesterolemic action"}, {"measurement": "solubility in organic solvents", "setting": "solubility; anhydrous ethanol, ethyl acetate, ethanol, chloroform, acetonitrile and n-hexane", "result": "Highly soluble"}, {"measurement": "solubility in water", "setting": "solubility; water", "result": "substantially insoluble"}, {"measurement": "accumulation of the medicinal effect", "setting": "uric acid level in serum; after stop of administration", "result": "not observed"}, {"measurement": "uric acid level in serum when administration was stopped", "setting": "uric acid level in serum; after stop of administration", "result": "promptly elevated to the value before the start of the administration"}, {"measurement": "average uric acid level in serum, 1st day", "setting": "uric acid level in serum; average of men A-E, 1st day, before administration, placebo average 6.0", "result": 5.8, "unit": "mg/dL"}, {"measurement": "average uric acid level in serum, 4th day", "setting": "uric acid level in serum; average of men A-E, 4th day, 300 mg three times per day, marked *, placebo average 5.7", "result": 3.1, "unit": "mg/dL"}, {"measurement": "average uric acid level in serum, 6th day", "setting": "uric acid level in serum; average of men A-E, 6th day, 300 mg three times per day, marked *, placebo average 5.7", "result": 2.7, "unit": "mg/dL"}, {"measurement": "average uric acid level in serum, 8th day", "setting": "uric acid level in serum; average of men A-E, 8th day, 300 mg three times per day for 7 days, marked *, placebo average 5.8", "result": 3.2, "unit": "mg/dL"}, {"measurement": "average uric acid level in serum, 11th day", "setting": "uric acid level in serum; average of men A-E, 11th day, after 7 days of administration, placebo average 7.1", "result": 5.5, "unit": "mg/dL"}, {"measurement": "lowering in the uric acid level in serum", "setting": "uric acid level in serum; fourth day", "result": "significant lowering in the uric acid level in serum was observed"}, {"measurement": "uric acid level in serum, 1st day", "setting": "uric acid level in serum; individual healthy men A-E (one per line), 1st day, before administration, 300 mg capsules three times per day after meals, 7 days, listed as compound of present invention", "result": "4.9 mg/dL and 6.4 mg/dL and 5.9 mg/dL and 7.0 mg/dL and 4.7 mg/dL"}, {"measurement": "uric acid level in serum, 4th day", "setting": "uric acid level in serum; individual healthy men A-E (one per line), 4th day, 300 mg capsules three times per day after meals, 7 days, listed as compound of present invention", "result": "8.5 mg/dL and 2.9 mg/dL and 2.6 mg/dL and 3.6 mg/dL and 2.8 mg/dL"}, {"measurement": "uric acid level in serum, 6th day", "setting": "uric acid level in serum; individual healthy men A-E (one per line), 6th day, 300 mg capsules three times per day after meals, 7 days, listed as compound of present invention", "result": "3.0 mg/dL and 2.6 mg/dL and 2.4 mg/dL and 3.2 mg/dL and 2.5 mg/dL"}, {"measurement": "uric acid level in serum, 8th day", "setting": "uric acid level in serum; individual healthy men A-E (one per line), 8th day, 300 mg capsules three times per day after meals, 7 days, listed as compound of present invention", "result": "3.2 mg/dL and 3.1 mg/dL and 4.0 mg/dL and 2.7 mg/dL"}, {"measurement": "uric acid level in serum, 11th day", "setting": "uric acid level in serum; individual healthy men A-E (one per line), 11th day, after 7 days of 300 mg capsules three times per day after meals, listed as compound of present invention", "result": "4.8 mg/dL and 5.6 mg/dL and 7.2 mg/dL and 5.3 mg/dL"}, {"measurement": "LD50", "setting": "[2]; ip, female, intraperitoneal", "result": 572, "unit": "mg/kg"}, {"measurement": "LD50", "setting": "[2]; ip, male, intraperitoneal", "result": 1340, "unit": "mg/kg"}, {"measurement": "LD50", "setting": "[2]; po, female", "result": 1910, "unit": "mg/kg"}, {"measurement": "LD50", "setting": "[2]; po, male", "result": 4260, "unit": "mg/kg"}, {"measurement": "LD50", "setting": "[2]; sc, female, subcutaneous", "result": 6350, "unit": "mg/kg"}, {"measurement": "LD50", "setting": "[2]; sc, male, subcutaneous", "result": "> 8000", "unit": "mg/kg"}, {"measurement": "time of death from the start of the administration", "setting": "Sic-SD rats", "result": "≤ 5", "unit": "days"}, {"measurement": "LD50", "setting": "[3]; ip, female, intraperitoneal", "result": 737, "unit": "mg/kg"}, {"measurement": "LD50", "setting": "[3]; ip, male, intraperitoneal", "result": 792, "unit": "mg/kg"}, {"measurement": "LD50", "setting": "[3]; po, female", "result": 4580, "unit": "mg/kg"}, {"measurement": "LD50", "setting": "[3]; po, male", "result": "> 2560", "unit": "mg/kg"}, {"measurement": "LD50", "setting": "[3]; sc, female, subcutaneous", "result": "> 5000", "unit": "mg/kg"}, {"measurement": "LD50", "setting": "[3]; sc, male, subcutaneous", "result": "> 5000", "unit": "mg/kg"}]}
{"smiles": "Oc1ncnc2[nH]ncc12", "note": "[allopurinol]", "values": [{"measurement": "adverse effects", "setting": "[4]", "result": "causes efflorescence, gastrointestinal disorders, liver troubles and hematogenic organ troubles"}]}
